According to patent US9539257B2, “Method of treating cancer” (NOVARTIS AG, priority 2009, dated 2017):

Experiments:
[1] = previous reports; cited from earlier work

Description for HLA-DQA1*0201: The confirmatory study also offered a means to evaluate the specificity of the lapatanib effect by assessment of the letrozole-only arm in the same trial.

| Compound | type of liver injury [1] | DQA1*0201 carriage in ALT cases (HLA-DQA1*0201; letrozole-only comparator treatment arm (3/11)) | DQA1*0201 carriage in ALT controls (HLA-DQA1*0201; letrozole-only comparator treatment arm (40/159)) | cumulative incidence of ALT elevation, DQA1*0201 carriers compared with non-carriers (HLA-DQA1*0201; letrozole-only treated patients, FIG. 3) |
| --- | --- | --- | --- | --- |
| Cc1onc(-c2c(F)cccc2Cl)c1C(=O)N[C@@H]1C(=O)N2[C@@H]1SC(C)(C)[C@@H]2C(=O)O [flucloxacillin] | cholestatic |  |  |  |
| N#Cc1ccc(C(c2ccc(C#N)cc2)n2cncn2)cc1 [letrozole, 4-[(4-cyanophenyl)-(1,2,4-triazol-1-yl)methyl]benzonitrile] |  | 27% | 25% | did not differ |
| CC1(C)S[C@@H]2[C@H](NC(=O)[C@H](N)c3ccc(O)cc3)C(=O)N2[C@H]1C(=O)O [Amoxicillin] | cholestatic |  |  |  |
